Assay results as given in patent publication US8765748B2, “Indazolyl, benzimidazolyl, benzotriazolyl substituted indolinone derivatives as kinase inhibitors useful in the treatment of cancer” (University Health Network, priority 2007, dated 2014).

Assays:
Assay type in all cases: biochemical
human PLK4 = biological target: T1, human PLK4 (Homo sapiens, UniProt O00444); test: PLK4 Inhibition Assay (indirect ELISA); details: 15 μM ATP, 4 nM GST-PLK4; read-out: PLK4 IC50 Ranges
T1 construct: amino terminal GST fusion of residues 1-391 of human PLK4; made in house; host or cells: E. coli
T1 sequence (O00444 1-391): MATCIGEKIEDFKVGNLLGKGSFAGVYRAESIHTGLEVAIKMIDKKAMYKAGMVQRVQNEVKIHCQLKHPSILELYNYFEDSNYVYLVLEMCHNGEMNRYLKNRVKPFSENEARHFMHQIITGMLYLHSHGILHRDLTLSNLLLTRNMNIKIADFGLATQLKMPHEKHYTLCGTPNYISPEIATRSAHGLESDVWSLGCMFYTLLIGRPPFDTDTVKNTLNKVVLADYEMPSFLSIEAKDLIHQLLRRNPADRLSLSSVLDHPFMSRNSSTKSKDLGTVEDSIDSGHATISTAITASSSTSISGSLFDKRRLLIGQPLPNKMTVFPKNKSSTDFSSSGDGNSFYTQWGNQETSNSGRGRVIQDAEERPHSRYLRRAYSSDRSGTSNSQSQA
Outline: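 Dephosphorylated (lambda phosphatase) GST-PLK4 activity read by indirect ELISA. Compounds were pre-incubated with enzyme for 15 minutes before ATP was added. IC50 came from a non-linear 4-point logistic fit.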

PLK1 = biological target: T2, PLK1 (Homo sapiens, UniProt P53350); test: PLK1 Inhibition Assay (Z-Lyte); details: for inhibition at 10 µM: 10 μM compound, read-out: PLK1 relative inhibition percentage at a dose of 10 μM; for IC50: 25 μM ATP, 8 nM PLK1, read-out: PLK1 IC50 Ranges
T2 construct: purchased Invitrogen PV3501
Description: PLK1 inhibition was determined using the Z-Lyte assay kit from Invitrogen (cat #PV3802). […] The % inhibition values were determined according to the manufacturer's directions and IC50 values were obtained using a non-linear 4 point logistic curve fit (XLfit4, IDBS)

PLK2 = biological target: T3, PLK2 (Homo sapiens, UniProt Q9NYY3); test: PLK2 Inhibition Assay (Z-Lyte); details: for inhibition at 10 µM: 10 μM compound, read-out: PLK2 relative inhibition percentage at a dose of 10 μM; for IC50: 60 μM ATP, 133 nM PLK2, read-out: PLK2 IC50 Ranges
T3 construct: purchased Invitrogen PV4204
Description: (§1) PLK2 inhibition was determined using the Z-Lyte assay kit from Invitrogen (cat #PV3802). The assay was performed using the recommended manufacturer's instructions with 60 μM ATP and 133 nM PLK2 (Invitrogen cat #PV4204). The % inhibition values were determined according to the manufacturer's directions and IC50 values were obtained using a non-linear 4 point logistic curve fit (XLfit4, IDBS)

Aurora A = biological target: T4, Aurora A (Homo sapiens, UniProt O14965); test: Aurora A Inhibition Assay (Z-Lyte); details: for inhibition at 10 µM: 10 μM compound, read-out: Aurora A relative inhibition percentage at a dose of 10 μM; for IC50: 20 μM ATP, 12 nM Aurora A, read-out: Aurora A IC50 Ranges
T4 construct: purchased Invitrogen PV3612
T4 sequence (O14965 1-403): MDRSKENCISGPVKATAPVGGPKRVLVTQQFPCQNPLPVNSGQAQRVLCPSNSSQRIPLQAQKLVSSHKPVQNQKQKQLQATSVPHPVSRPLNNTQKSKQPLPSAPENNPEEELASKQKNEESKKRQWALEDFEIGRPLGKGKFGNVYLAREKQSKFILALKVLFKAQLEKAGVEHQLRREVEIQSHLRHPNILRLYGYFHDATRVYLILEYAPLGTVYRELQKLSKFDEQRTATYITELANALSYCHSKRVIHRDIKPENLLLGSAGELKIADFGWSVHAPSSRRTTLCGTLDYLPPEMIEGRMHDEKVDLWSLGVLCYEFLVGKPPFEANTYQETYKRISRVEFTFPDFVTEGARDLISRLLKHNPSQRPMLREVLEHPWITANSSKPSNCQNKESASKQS
Description: as §1, with “Aurora A” for “PLK2”, “Invitrogen.” for “Invitrogen (cat #PV3802).”, “20” for “60”, “12” for “133”, “#PV3612).” for “#PV4204).”

Aurora B = biological target: T5, Aurora B (Homo sapiens, UniProt Q96GD4); test: Aurora B Inhibition Assay (Z-Lyte); details: for IC50: 128 μM ATP, 28 nM Aurora B, read-out: Aurora B IC50 Ranges
T5 construct: purchased Invitrogen PV3970
Description: as §1, with “Aurora B” for “PLK2”, “Invitrogen.” for “Invitrogen (cat #PV3802).”, “128” for “60”, “28” for “133”, “#PV3970).” for “#PV4204).”

T3 sequence (Q9NYY3 whole entry): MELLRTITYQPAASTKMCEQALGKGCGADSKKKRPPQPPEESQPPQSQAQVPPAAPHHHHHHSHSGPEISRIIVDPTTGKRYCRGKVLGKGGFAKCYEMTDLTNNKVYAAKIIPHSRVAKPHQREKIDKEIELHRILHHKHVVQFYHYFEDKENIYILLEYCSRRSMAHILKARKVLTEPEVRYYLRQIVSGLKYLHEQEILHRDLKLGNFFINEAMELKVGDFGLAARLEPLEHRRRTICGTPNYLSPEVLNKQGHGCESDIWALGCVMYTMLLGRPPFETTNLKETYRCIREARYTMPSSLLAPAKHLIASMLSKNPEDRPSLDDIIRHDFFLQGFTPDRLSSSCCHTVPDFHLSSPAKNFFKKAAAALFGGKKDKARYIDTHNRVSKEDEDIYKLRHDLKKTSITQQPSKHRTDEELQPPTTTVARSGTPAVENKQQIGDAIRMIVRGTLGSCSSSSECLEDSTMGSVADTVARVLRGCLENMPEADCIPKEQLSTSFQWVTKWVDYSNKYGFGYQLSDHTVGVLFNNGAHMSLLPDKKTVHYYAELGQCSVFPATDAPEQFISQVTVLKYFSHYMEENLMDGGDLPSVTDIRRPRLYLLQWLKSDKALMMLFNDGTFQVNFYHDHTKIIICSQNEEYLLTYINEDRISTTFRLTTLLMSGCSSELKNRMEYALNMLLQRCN
T2 sequence (P53350 whole entry): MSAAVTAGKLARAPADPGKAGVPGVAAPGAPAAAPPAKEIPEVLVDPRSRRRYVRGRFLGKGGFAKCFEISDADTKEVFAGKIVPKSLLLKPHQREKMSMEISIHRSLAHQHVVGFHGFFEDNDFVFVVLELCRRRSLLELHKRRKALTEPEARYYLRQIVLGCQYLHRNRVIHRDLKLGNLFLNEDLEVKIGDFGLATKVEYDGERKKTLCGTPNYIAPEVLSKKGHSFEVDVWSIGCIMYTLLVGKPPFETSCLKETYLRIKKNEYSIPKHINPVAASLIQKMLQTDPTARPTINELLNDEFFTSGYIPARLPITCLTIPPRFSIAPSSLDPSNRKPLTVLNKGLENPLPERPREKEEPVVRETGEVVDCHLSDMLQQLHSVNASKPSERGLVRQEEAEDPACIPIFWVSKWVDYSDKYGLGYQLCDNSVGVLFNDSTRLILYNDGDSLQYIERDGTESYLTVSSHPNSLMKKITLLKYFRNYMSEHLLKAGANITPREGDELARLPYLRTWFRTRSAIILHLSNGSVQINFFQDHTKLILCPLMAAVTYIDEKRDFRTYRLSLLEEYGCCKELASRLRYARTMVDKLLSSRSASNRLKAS
T5 sequence (Q96GD4 whole entry): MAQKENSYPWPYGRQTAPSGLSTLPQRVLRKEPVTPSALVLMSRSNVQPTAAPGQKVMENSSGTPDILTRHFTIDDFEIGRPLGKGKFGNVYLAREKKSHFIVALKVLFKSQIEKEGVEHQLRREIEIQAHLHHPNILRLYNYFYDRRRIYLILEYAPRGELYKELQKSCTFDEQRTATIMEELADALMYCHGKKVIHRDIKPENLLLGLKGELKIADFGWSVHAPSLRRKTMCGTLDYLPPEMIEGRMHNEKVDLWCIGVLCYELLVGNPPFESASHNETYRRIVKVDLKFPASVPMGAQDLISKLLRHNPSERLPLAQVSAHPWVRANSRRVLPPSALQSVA

Row | Compound | IC50 (human PLK4) [µM] | inhibition at 10 µM (PLK1) [%] | inhibition at 10 µM (PLK2) [%] | inhibition at 10 µM (Aurora A) [%] | IC50 (Aurora B) [µM] | IC50 (Aurora A) [µM] | IC50 (PLK1) [µM] | IC50 (PLK2) [µM] | inhibition at 10 µM (Aurora B; 10 μM compound, read-out: Aurora B relative inhibition percentage at a dose of 10 μM) [%]
1 | CCOC(=O)/C=C/c1n[nH]c2cc(C=C3C(=O)Nc4ncccc43)ccc12 (mixture of isomers) [Example A110, (E and Z)-ethyl 3-(6-((E)-(2-oxo-1H-pyrrolo[2,3-b]pyridin-3(2H-ylidene)methyl)-1H-indazol-3-yl)acrylate] | < 5 | < 50 | < 50 | – | < 5 | < 5 | – | – | –
2 | COC(=O)/C=C/c1n[nH]c2cc(/C=C3/C(=O)Nc4ccccc43)ccc12 [Example A61, (E)-methyl 3-(6-((E)-(2-oxoindolin-3-ylidene)methyl)-1H-indazol-3-yl)acrylate] | < 5 | < 50 | < 50 | – | < 5 | < 5 | – | – | –
3 | O=C1Nc2ccccc2/C1=C\c1cc(-c2ccncc2)c2cn[nH]c2c1 [Example A54a, (E)-3-((4-(pyridin-4-yl)-1H-indazol-6-yl)methylene)indolin-2-one] | < 5 | – | > 50 | > 50 | < 5 | – | > 50 | – | –
4 | O=C1Nc2c(cccc2C(F)(F)F)C1=Cc1ccc2cn[nH]c2c1 (mixture of isomers) [Example A47, (E and Z)-3-((1H-indazol-6-yl)methylene)-7-(trifluoromethyl)indolin-2-one] | > 50 | – | – | – | 5 to 50 | > 50 | > 50 | > 50 | –
5 | O=C1Nc2ccccc2/C1=C\c1ccc2c(/C=C/c3ccccc3)n[nH]c2c1 [Example A58, (E)-3-((E)-(3-styryl-1H-indazol-6-yl)methylene)indolin-2-one] | < 5 | < 50 | < 50 | – | < 5 | < 5 | – | – | –
6 | COc1ccc2c(c1)/C(=C\c1ccc3c(-c4ccc(N5CCOCC5)nc4)n[nH]c3c1)C(=O)N2 [Example A112, (E)-5-methoxy-3-((3-(6-morpholinopyridin-3-yl)-1H-indazol-6-yl)-methylene)indolin-2-one] | < 5 | < 50 | < 50 | – | < 5 | < 5 | – | – | –
7 | Nc1ccc2c(c1)NC(=O)/C2=C/c1ccc2cn[nH]c2c1 [Example A38, (E)-3-((1H-indazol-6-yl)methylene)-2-oxoindolin-6-aminium 2,2,2-trifluoroacetate] | < 5 | – | < 50 | – | < 5 | 5 to 50 | 5 to 50 | – | –
8 | O=C1Nc2ncccc2/C1=C\c1ccc2cn[nH]c2c1 [Example A67, (E)-3-((1H-indazol-6-yl)methylene)-1H-pyrrolo[2,3-b]pyridin-2(3H)-one] | < 5 | > 50 | > 50 | > 50 | – | – | – | – | > 50
9 | O=C1Nc2c(Cl)cccc2/C1=C\c1ccc2cn[nH]c2c1 [Example A43, (E)-3-((1H-indazol-6-yl)methylene)-7-chloroindolin-2-one] | < 5 | – | > 50 | – | < 5 | 5 to 50 | > 50 | – | –

Other lines, results leading:

Row | IC50 (human PLK4) [µM] | inhibition at 10 µM (PLK1) [%] | inhibition at 10 µM (PLK2) [%] | inhibition at 10 µM (Aurora A) [%] | IC50 (Aurora B) [µM] | IC50 (Aurora A) [µM] | IC50 (PLK1) [µM] | IC50 (PLK2) [µM] | inhibition at 10 µM (Aurora B; 10 μM compound, read-out: Aurora B relative inhibition percentage at a dose of 10 μM) [%] | Compound
10 | < 5 | < 50 | < 50 | > 50 | < 5 | – | – | – | – | O=C1Nc2ncccc2/C1=C\c1ccc2c(/C=C/c3ccncc3)n[nH]c2c1 [Example A101, (E)-3-((3-((E)-2-(pyridin-4-yl)vinyl)-1H-indazol-6-yl)methylene)-1H-pyrrolo[2,3-b]pyridin-2(3H)-one]
11 | < 5 | > 50 | < 50 | – | < 5 | < 5 | – | – | – | CN1CCN(C(=O)c2cccc(/C=C/c3n[nH]c4cc(C=C5C(=O)Nc6ccccc65)ccc34)c2)CC1 (mixture of isomers) [Example A107, (E and Z)-3-((3-((E)-3-(4-methylpiperazine-1-carbonyl)styryl)-1H-indazol-6-yl)methylene)indolin-2-one 2,2,2-trifluoroacetate]
12 | < 5 | < 50 | < 50 | > 50 | < 5 | – | – | – | – | O=C1Nc2ccccc2C1=Cc1ccc2c(-c3cncnc3)n[nH]c2c1 (mixture of isomers) [Example A100, (E and Z)-3-((3-(pyrimidin-5-yl)-1H-indazol-6-yl)methylene)-indolin-2-one]
13 | < 5 | < 50 | < 50 | > 50 | < 5 | – | – | – | – | O=C1Nc2ncccc2/C1=C\c1ccc2c(/C=C/c3ccccn3)n[nH]c2c1 [Example A72, (E)-3-((3-((E)-2-(pyridin-2-yl)vinyl)-1H-indazol-6-yl)methylene)-1H-pyrrolo[2,3-b]pyridin-2(3H)-one]
14 | < 5 | < 50 | < 50 | – | < 5 | < 5 | – | – | – | O=C1Nc2ccccc2C1=Cc1ccc2c(-c3cccnc3)n[nH]c2c1 (mixture of isomers) [Example A93, (E and Z)-3-((3-(pyridin-3-yl)-1H-indazol-6-yl)methylene)indolin-2-one]
15 | 5 to 50 | – | – | < 50 | < 5 | – | > 50 | > 50 | – | CC(C)(C)OC(=O)Nc1ccc2c(c1)NC(=O)/C2=C/c1ccc2cn[nH]c2c1 [Example A37, (E)-tert-butyl 3-((1H-indazol-6-yl)methylene)-2-oxoindolin-6-ylcarbamate]
16 | < 5 | < 50 | < 50 | – | < 5 | < 5 | – | – | – | O=C1Nc2ccc(Br)cc2/C1=C\c1ccc2c(/C=C/c3ccncc3)n[nH]c2c1 [Example A62, (E)-5-bromo-3-((3-((E)-2-(pyridin-4-yl)vinyl)-1H-indazol-6-yl)-methylene)indolin-2-one]
17 | < 5 | < 50 | < 50 | – | < 5 | < 5 | – | – | – | O=C1Nc2ccc(Cl)cc2/C1=C\c1ccc2cn[nH]c2c1 [Example A80, (E)-3-((1H-indazol-6-yl)methylene)-5-chloroindolin-2-one]
18 | < 5 | < 50 | < 50 | > 50 | < 5 | – | – | – | – | COc1ccc2c(c1)C(=Cc1ccc3c(/C=C/c4ccccn4)n[nH]c3c1)C(=O)N2 (mixture of isomers) [Example A87, (E and Z)-5-methoxy-3-((3-((E)-2-(pyridin-2-yl)vinyl)-1H-indazol-6-yl)methylene)indolin-2-one]
19 | < 5 | – | > 50 | > 50 | 5 to 50 | – | 5 to 50 | – | – | CC(=O)Nc1ccc2c(c1)/C(=C\c1ccc3cn[nH]c3c1)C(=O)N2 [Example A22, (E)-N-(3-((1H-indazol-6-yl)methylene)-2-oxoindolin-5-yl)acetamide]
